Measured values from ChEMBL document CHEMBL5096171, “Synthesis and Biological Evaluation of PSMA Ligands with Aromatic Residues and Fluorescent Conjugates Based on Them” (J Med Chem, 2021).

Tests used:
Format in all cases: ADME, cell-based
[1] = Drug uptake in human 22Rv1 cells assessed as decrease in drug accumulation incubated for 1 hr in presence of (3S,7S,25S,28S)-33-Azido-25-benzyl-12-(3-chlorobenzyl)-28-(4-hydroxybenzyl)-5,13,20,23,26,29-hexaoxo-4,6,12,19,24,27,30-heptaazatritriacontane-1,3,7-tricarboxylic acid by flow cytometry; conditions: cwr22r
[2] = Drug uptake in human PC-3 cells assessed as drug accumulation by measuring fluorescence signal at 4 uM incubated for 30 mins by flow cytometry; conditions: pc-3, 0.5 h
[3] = Drug uptake in human 22Rv1 cells assessed as drug accumulation by measuring fluorescence signal at 4 uM incubated for 30 mins by flow cytometry; conditions: cwr22r, 0.5 h
[4] = Drug uptake in human LNCaP cells assessed as decrease in drug accumulation incubated for 1 hr in presence of (3S,7S,25S,28S)-33-Azido-25-benzyl-12-(3-chlorobenzyl)-28-(4-hydroxybenzyl)-5,13,20,23,26,29-hexaoxo-4,6,12,19,24,27,30-heptaazatritriacontane-1,3,7-tricarboxylic acid by flow cytometry
[5] = Drug uptake in human LNCaP cells assessed as drug accumulation by measuring fluorescence signal at 4 uM incubated for 30 mins by flow cytometry; conditions: 0.5 h
[6] = Drug uptake in human PC-3 cells assessed as decrease in drug accumulation incubated for 1 hr in presence of (3S,7S,25S,28S)-33-Azido-25-benzyl-12-(3-chlorobenzyl)-28-(4-hydroxybenzyl)-5,13,20,23,26,29-hexaoxo-4,6,12,19,24,27,30-heptaazatritriacontane-1,3,7-tricarboxylic acid by flow cytometry; conditions: pc-3, 1 h

O=C(O)CC[C@H](NC(=O)N[C@@H](CCCCN(Cc1cccc(Cl)c1)C(=O)CCCCCNC(=O)CCC(=O)N[C@@H](Cc1ccccc1)C(=O)N[C@@H](Cc1ccc(O)cc1)C(=O)NCCCn1cc(CNC(=O)c2cccc3c2C(=O)OC32c3ccc(O)cc3Oc3cc(O)ccc32)nn1)C(=O)O)C(=O)O
Drug uptake [1]: Active
Drug uptake [2]: 7.6%
Drug uptake [3]: 14.4%
Drug uptake [4]: Active
Drug uptake [5]: 83.8%
Drug uptake [6]: Active
